Read-outs that look alike come from different tables or passages of the source.
Experiments:
[1] = molecular target: T1, Phosphoethanolamine methyltransferase (PfPMT) (Plasmodium falciparum, UniProt Q8IDQ9); test: enzyme-coupled SAM methyltransferase colorimetric assay ([…] nm), Michaelis-Menten kinetics with varied pEth; format: biochemical
T1 construct: gene PMT; recombinant PfPMT expressed from pET-24a in BL21 (DE3), ~30 kDa
T1 sequence (Q8IDQ9 1-266): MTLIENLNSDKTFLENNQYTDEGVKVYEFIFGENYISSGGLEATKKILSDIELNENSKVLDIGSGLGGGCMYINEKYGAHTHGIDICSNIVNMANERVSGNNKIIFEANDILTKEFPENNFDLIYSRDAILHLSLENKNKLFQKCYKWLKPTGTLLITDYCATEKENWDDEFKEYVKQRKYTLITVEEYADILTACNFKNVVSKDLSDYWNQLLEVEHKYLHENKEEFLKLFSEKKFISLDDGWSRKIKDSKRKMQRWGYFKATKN

[2] = substrate: NCCOP(=O)(O)O; test: purified protein; format: biochemical, Plasmodium falciparum; details: SAM substrate (phosphobase) site

Molecule: NC(Cc1cc(=O)nc(-c2ccccn2)[nH]1)c1ccc(F)cc1 (stereo not drawn) [ASN.1, 6-[Amino-2-(4-fluoro-phenyl)-ethyl]-pyridin-2-yl-1H-pyrimidin-4-one]
- Ki [1]: 1200 nM

Molecule: COc1ccc(CCNC(=O)CNCC2CCCO2)cc1OC (stereo not drawn) [ASN.3, N-[2-(3,4-Dimethoxy-phenyl)-ethyl]-2-[(tetrahydro-furan-2-ylmethyl)-amino]-acetamide]
- Ki ([1]; read-out: Ki): 2200 nM

B1: Phosphoethanolamine methyltransferase (PfPMT) (Plasmodium falciparum 3D7) (protein)
chain: T1 sequence (Q8IDQ9 1-266)
notes: recombinant PfPMT expressed from pET-24a in BL21 (DE3), ~30 kDa
- Km [2]: 52.4 µM
